Laboratory results as given in BigSolDB 2.1.

S=c1[nH]c2ccccc2s1
solubility (mole fraction)
Conditions	in 1,4-dioxane	in 2-butanone	in acetonitrile	in chloroform	in ethyl acetate	in isobutanol
273.15 K	–	0.0695	0.00426	0.00683	0.0274	0.0101
275.65 K	–	0.0722	0.00467	0.0072	0.0286	0.011
278.15 K	–	0.0752	0.00507	0.00766	0.0297	0.012
280.65 K	–	0.0778	0.00553	0.00816	0.0309	0.0132
283.15 K	–	0.0807	0.00597	0.00865	0.0323	0.0143
285.65 K	0.0438	0.0837	0.00647	0.00922	0.0336	0.0155
288.15 K	0.0466	0.0867	0.00705	0.00972	0.0348	0.0169
290.65 K	0.0502	0.0902	0.00762	0.0104	0.0361	0.0184
293.15 K	0.0536	0.093	0.00819	0.0109	0.0374	0.0199
295.65 K	0.0574	0.0967	0.00885	0.0115	0.0389	0.0215
298.15 K	0.0613	0.0995	0.00956	0.0121	0.0403	0.0231
300.65 K	0.0652	0.103	0.0102	0.0128	0.0419	0.0252
303.15 K	0.0698	0.106	0.011	0.0135	0.0434	–
305.65 K	0.0742	0.11	0.0118	0.0142	0.0448	–
308.15 K	0.079	0.113	0.0127	0.0149	0.0465	–
310.65 K	0.0835	0.116	0.0137	0.0156	0.0482	–
313.15 K	0.0893	0.12	0.0146	0.0165	0.0499	–
315.65 K	0.0943	0.124	0.0155	0.0172	0.0513	–
318.15 K	0.101	0.128	0.0167	0.0182	0.0532	–
